We go through 21 molecules from patent publication US20130165450A1, “Novel Thiazol-Carboximide Derivatives as PDK1 Inhibitors” (priority 2010, published 2013).

In this assay the target is T1, recombinant human PDK1 (amino acids 51-556) (Homo sapiens, UniProt O15530).
T1 construct: containing amino acids 51-556 of the human PDK1 enzyme; made in house
T1 sequence (O15530 51-556): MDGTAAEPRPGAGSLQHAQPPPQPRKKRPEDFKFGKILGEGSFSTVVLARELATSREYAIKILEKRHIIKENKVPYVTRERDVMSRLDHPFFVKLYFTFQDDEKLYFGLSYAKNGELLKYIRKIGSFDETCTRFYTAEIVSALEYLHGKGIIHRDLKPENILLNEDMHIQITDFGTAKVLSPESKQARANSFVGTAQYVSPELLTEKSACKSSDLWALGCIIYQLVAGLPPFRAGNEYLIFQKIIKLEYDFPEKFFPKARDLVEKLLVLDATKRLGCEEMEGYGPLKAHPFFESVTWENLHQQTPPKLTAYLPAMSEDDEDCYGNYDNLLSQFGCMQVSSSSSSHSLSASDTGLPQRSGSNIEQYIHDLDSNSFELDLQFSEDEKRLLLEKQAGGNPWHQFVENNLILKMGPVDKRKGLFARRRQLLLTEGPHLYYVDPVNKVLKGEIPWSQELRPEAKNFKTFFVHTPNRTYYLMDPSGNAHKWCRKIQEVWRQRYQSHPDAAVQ
The experiment in a line: PDK1 IMAP fluorescence polarization kinase assay. The class given is biochemical. As to conditions: 10 nM PDK1, 100 nM peptide substrate, 100 nM PIFtide, 2.5 uM ATP, 1.5 hours; rated A-D.
Regarding `N[C@@H]1CCCN(c2c(F)cccc2NC(=O)c2csc(-c3cnn(CCOCc4ccccc4)c3)n2)C1` [Compound 40, N-[2-(3(R)-amino-1-piperidinyl)-3-fluorophenyl]-2-[1-[2-(phenylmethoxy)ethyl]-1H-pyrazol-4-yl]-4-thiazolecarboxamide], the IC50 – broadly, the concentration that gives 50% inhibition – fell in the range of 251 to 1000 nM.

Turning to `N[C@@H]1CCCN(c2c(F)cccc2NC(=O)c2csc(-c3cnn(Cc4ccccc4Br)c3)n2)C1` [Compound 49, N-[2-(3(R)-amino-1-piperidinyl)-3-fluorophenyl]-2-[1-[(2-bromophenyl)methyl]-1H-pyrazol-4-yl]-4-thiazolecarboxamide], the IC50 was in the range of 251 to 1000 nM.

`N[C@@H]1CCCN(c2c(F)cccc2NC(=O)c2csc(-c3cnn(Cc4ccccc4CO)c3)n2)C1` [Compound 42, N-[2-(3(R)-amino-1-piperidinyl)-3-fluorophenyl]-2-[1-[[2-(hydroxymethyl)phenyl]methyl]-1H-pyrazol-4-yl]-4-thiazolecarboxamide]: the IC50 lay in the range of 51 to 250 nM.

With `N[C@@H]1CCCN(c2c(F)cccc2NC(=O)c2csc(-c3cnn(CCCOc4ccccc4)c3)n2)C1` [Compound 43, N-[2-(3(R)-amino-1-piperidinyl)-3-fluorophenyl]-2-[1-(3-phenoxypropyl)-1H-pyrazol-4-yl]-4-thiazolecarboxamide], the IC50 is more than 1000 nM.

As for `N[C@@H]1CCCN(c2c(F)cccc2NC(=O)c2csc(-c3cnn(Cc4ccccc4SC(F)(F)F)c3)n2)C1` [Compound 37, N-[2-(3(R)-amino-1-piperidinyl)-3-fluorophenyl]-2-[1-[[2-[(trifluoromethyl)thio]phenyl]methyl]-1H-pyrazol-4-yl]-4-thiazolecarboxamide], the IC50 was more than 1000 nM.

As to `Nc1ccc(N2CCC[C@@H](N)C2)c(NC(=O)c2csc(-c3cnn(Cc4cc(F)ccc4F)c3)n2)c1` [Compound 22, N-[5-amino-2-(3(R)-amino-1-piperidinyl)phenyl]-2-[1-[(2,5-difluorophenyl)methyl]-1H-pyrazol-4-yl]-4-thiazolecarboxamide], the concentration for half-maximal inhibition (IC50) is 1 to 50 nM.

For `N[C@@H]1CCCN(c2c(F)cccc2NC(=O)c2csc(-c3cnn(Cc4c(F)cccc4F)c3)n2)C1` [Compound 32, N-[2-(3(R)-amino-1-piperidinyl)-3-fluorophenyl]-2-[1-[(2,6-difluorophenyl)methyl]-1H-pyrazol-4-yl]-4-thiazolecarboxamide], the IC50 lay in the range of 51 to 250 nM.

Turning to `Nc1ccc(N2CCC[C@@H](N)C2)c(NC(=O)c2csc(-c3cnn(Cc4ccc(F)c(F)c4)c3)n2)c1` [Compound 14, N-[5-amino-2-(3(R)-amino-1-piperidinyl)phenyl]-2-[1-[(3,4-difluorophenyl)methyl]-1H-pyrazol-4-yl]-4-thiazolecarboxamide], the IC50 lay within 1 to 50 nM.

Consider `Nc1ccc(N2CCC[C@@H](N)C2)c(NC(=O)c2csc(-c3cnn(Cc4ccccn4)c3)n2)c1` [Compound 13, N-[5-amino-2-(3(R)-amino-1-piperidinyl)phenyl]-2-[1-(2-pyridinylmethyl)-1H-pyrazol-4-yl]-4-thiazolecarboxamide], for which the IC50 lay in the range of 1 to 50 nM.

As to `Nc1ccc(N2CCC[C@@H](N)C2)c(NC(=O)c2csc(-c3cnn(Cc4cccc(F)c4)c3)n2)c1` [Compound 19, N-[5-amino-2-(3(R)-amino-1-piperidinyl)phenyl]-2-[1-[(3-fluorophenyl)methyl]-1H-pyrazol-4-yl]-4-thiazolecarboxamide], the IC50 was 1 to 50 nM.

In the case of `O=C(Nc1ccccc1N1CCNCC1)c1csc(-c2cnn(Cc3cc(F)ccc3F)c2)n1` [Compound 39, 2-[1-[(2,5-difluorophenyl)methyl]-1H-pyrazol-4-yl]-N-[2-(1-piperazinyl)phenyl]-4-thiazolecarboxamide], the IC50 lay within 251 to 1000 nM.

For the molecule `Nc1ccc(N2CCC[C@@H](N)C2)c(NC(=O)c2csc(-c3cnn(CCN4CCOCC4)c3)n2)c1` [Compound 4, N-[5-amino-2-(3(R)-amino-1-piperidinyl)phenyl]-2-[1-[2-(4-morpholinyl)ethyl]-1H-pyrazol-4-yl]-4-thiazolecarboxamide], the IC50 was 251 to 1000 nM.

Take `CC(c1ccccc1)n1cc(-c2nc(C(=O)Nc3cc(N)ccc3N3CCC[C@@H](N)C3)cs2)cn1` (stereo partly drawn) [Compound 30, N-[5-amino-2-(3(R)-amino-1-piperidinyl)phenyl]-2-[1-(1-phenylethyl)-1H-pyrazol-4-yl]-4-thiazolecarboxamide]: the IC50 was 51 to 250 nM.

As to `COC(=O)c1cccc(F)c1Cn1cc(-c2nc(C(=O)Nc3cccc(F)c3N3CCC[C@@H](N)C3)cs2)cn1` [Compound 45, methyl 2-[[4-[4-[[[2-(3(R)-amino-1-piperidinyl)-3-fluorophenyl]amino]carbonyl]-2-thiazolyl]-1H-pyrazol-1-yl]methyl]-3-fluorobenzoate], the IC50 was 251 to 1000 nM.

In the case of `N[C@@H]1CCCN(c2c(F)cccc2NC(=O)c2csc(-c3cnn(Cc4cccs4)c3)n2)C1` [Compound 23, N-[2-(3(R)-amino-1-piperidinyl)-3-fluorophenyl]-2-[1-(2-thienylmethyl)-1H-pyrazol-4-yl]-4-thiazolecarboxamide], the IC50 fell in the range of 1 to 50 nM.

Regarding `NCC1CCN(c2ccc(N)cc2NC(=O)c2csc(-c3cnn(Cc4ccccn4)c3)n2)CC1` [Compound 24, N-[5-amino-2-[4-(aminomethyl)-1-piperidinyl]phenyl]-2-[1-(2-pyridinylmethyl)-1H-pyrazol-4-yl]-4-thiazolecarboxamide], the IC50 fell in the range of 51 to 250 nM.

On to `Nc1ccc(N2CCC[C@@H](N)C2)c(NC(=O)c2csc(-c3cnn(Cc4ccccc4)c3)n2)c1` [Compound 3, N-[5-amino-2-(3(R)-amino-1-piperidinyl)phenyl]-2-[1-(phenylmethyl)-1H-pyrazol-4-yl]-4-thiazolecarboxamide], for which the IC50 was 1 to 50 nM.

As to `CN(C)CCCn1cc(-c2nc(C(=O)Nc3cc(N)ccc3N3CCC[C@@H](N)C3)cs2)cn1` [Compound 2, N-[5-amino-2-(3(R)-amino-1-piperidinyl)phenyl]-2-[1-[3-(dimethylamino)propyl]-1H-pyrazol-4-yl]-4-thiazolecarboxamide], the IC50 lay in the range of 251 to 1000 nM.

In the case of `N[C@@H]1CCCN(c2c(F)cccc2NC(=O)c2csc(-c3cnn(Cc4ccccc4OC(F)(F)F)c3)n2)C1` [Compound 33, N-[2-(3(R)-amino-1-piperidinyl)-3-fluorophenyl]-2-[1-[[2-(trifluoromethoxy)phenyl]methyl]-1H-pyrazol-4-yl]-4-thiazolecarboxamide], the IC50 was more than 1000 nM.

As to `Nc1ccc(N2CCC3(CCCNC3)CC2)c(NC(=O)c2csc(-c3cnn(Cc4ccccn4)c3)n2)c1` [Compound 20, N-[5-amino-2-(2,9-diazaspiro[5.5]undec-9-yl)phenyl]-2-[1-(2-pyridinylmethyl)-1H-pyrazol-4-yl]-4-thiazolecarboxamide], the IC50 was in the range of 51 to 250 nM.

Turning to `CCOC(=O)C1CCCN(c2ccc(N)cc2NC(=O)c2csc(-c3cnn(Cc4cccs4)c3)n2)C1` (stereo not drawn) [Compound 11, ethyl 1-[4-amino-2-[[[2-[1-(2-thienylmethyl)-1H-pyrazol-4-yl]-4-thiazolyl]carbonyl]amino]phenyl]-3-piperidinecarboxylate], the IC50 was more than 1000 nM.
